# Measurements reported in the kinase profiling compilation of Christmann-Franck et al. (2016).
# Columns and labels:
# Experiment in all cases: KINOMEscan competition binding
# Settings in all cases: compound 10.0 µM
# [1] = molecular target: ERBB3 (human) (UniProt P21860)
# [2] = molecular target: IGF1R (human) (UniProt P08069)
# [3] = molecular target: CDK19 (human) (UniProt Q9BWU1)
# [4] = molecular target: PIM1 (human) (UniProt P11309)
# [5] = molecular target: BLK (human) (UniProt P51451)
# [6] = molecular target: FLT1 (human) (UniProt P17948)
# [7] = molecular target: RPS6KA2 KD2 (human) (UniProt Q15349)
# [8] = molecular target: CSNK1G1 (human) (UniProt Q9HCP0)
# [9] = molecular target: MAP3K6 (human) (UniProt O95382)
# [10] = molecular target: NEK5 (human) (UniProt Q6P3R8)
# [11] = molecular target: FER (human) (UniProt P16591)
# Sequence of FER (human) (P16591 whole entry, looked up): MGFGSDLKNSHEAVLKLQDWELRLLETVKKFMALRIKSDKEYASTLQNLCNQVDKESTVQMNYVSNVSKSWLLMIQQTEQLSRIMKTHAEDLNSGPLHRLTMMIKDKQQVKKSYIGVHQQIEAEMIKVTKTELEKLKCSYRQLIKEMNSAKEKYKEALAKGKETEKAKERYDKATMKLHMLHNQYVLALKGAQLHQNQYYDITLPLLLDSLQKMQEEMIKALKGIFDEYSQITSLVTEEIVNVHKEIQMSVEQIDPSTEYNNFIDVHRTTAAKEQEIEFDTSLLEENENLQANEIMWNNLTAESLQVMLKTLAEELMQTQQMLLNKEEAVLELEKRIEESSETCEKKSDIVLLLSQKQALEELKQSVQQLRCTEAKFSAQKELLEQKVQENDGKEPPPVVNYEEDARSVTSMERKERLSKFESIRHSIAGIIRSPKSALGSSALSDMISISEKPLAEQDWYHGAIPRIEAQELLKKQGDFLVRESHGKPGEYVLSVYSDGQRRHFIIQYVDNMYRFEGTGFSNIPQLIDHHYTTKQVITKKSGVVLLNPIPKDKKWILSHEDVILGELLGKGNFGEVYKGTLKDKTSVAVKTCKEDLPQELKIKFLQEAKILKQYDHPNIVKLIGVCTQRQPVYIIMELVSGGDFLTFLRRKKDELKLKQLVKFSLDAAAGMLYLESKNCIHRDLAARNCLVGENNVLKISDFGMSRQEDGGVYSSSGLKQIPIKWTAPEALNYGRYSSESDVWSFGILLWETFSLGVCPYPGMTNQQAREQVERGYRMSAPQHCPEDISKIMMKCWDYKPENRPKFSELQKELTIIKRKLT
# [12] = molecular target: LIMK2 (human) (UniProt P53671)
# [13] = molecular target: DDR2 (human) (UniProt Q16832)
# [14] = molecular target: EPHA3 (human) (UniProt P29320)
# [15] = molecular target: MARK4 (human) (UniProt Q96L34)
# [16] = molecular target: MAP3K11 (human) (UniProt Q16584)
# [17] = molecular target: CaMK1 (human) (UniProt Q14012)
# [18] = molecular target: MAP3K15 (human) (UniProt Q6ZN16)
# Sequence of MAP3K15 (human) (Q6ZN16 whole entry, looked up): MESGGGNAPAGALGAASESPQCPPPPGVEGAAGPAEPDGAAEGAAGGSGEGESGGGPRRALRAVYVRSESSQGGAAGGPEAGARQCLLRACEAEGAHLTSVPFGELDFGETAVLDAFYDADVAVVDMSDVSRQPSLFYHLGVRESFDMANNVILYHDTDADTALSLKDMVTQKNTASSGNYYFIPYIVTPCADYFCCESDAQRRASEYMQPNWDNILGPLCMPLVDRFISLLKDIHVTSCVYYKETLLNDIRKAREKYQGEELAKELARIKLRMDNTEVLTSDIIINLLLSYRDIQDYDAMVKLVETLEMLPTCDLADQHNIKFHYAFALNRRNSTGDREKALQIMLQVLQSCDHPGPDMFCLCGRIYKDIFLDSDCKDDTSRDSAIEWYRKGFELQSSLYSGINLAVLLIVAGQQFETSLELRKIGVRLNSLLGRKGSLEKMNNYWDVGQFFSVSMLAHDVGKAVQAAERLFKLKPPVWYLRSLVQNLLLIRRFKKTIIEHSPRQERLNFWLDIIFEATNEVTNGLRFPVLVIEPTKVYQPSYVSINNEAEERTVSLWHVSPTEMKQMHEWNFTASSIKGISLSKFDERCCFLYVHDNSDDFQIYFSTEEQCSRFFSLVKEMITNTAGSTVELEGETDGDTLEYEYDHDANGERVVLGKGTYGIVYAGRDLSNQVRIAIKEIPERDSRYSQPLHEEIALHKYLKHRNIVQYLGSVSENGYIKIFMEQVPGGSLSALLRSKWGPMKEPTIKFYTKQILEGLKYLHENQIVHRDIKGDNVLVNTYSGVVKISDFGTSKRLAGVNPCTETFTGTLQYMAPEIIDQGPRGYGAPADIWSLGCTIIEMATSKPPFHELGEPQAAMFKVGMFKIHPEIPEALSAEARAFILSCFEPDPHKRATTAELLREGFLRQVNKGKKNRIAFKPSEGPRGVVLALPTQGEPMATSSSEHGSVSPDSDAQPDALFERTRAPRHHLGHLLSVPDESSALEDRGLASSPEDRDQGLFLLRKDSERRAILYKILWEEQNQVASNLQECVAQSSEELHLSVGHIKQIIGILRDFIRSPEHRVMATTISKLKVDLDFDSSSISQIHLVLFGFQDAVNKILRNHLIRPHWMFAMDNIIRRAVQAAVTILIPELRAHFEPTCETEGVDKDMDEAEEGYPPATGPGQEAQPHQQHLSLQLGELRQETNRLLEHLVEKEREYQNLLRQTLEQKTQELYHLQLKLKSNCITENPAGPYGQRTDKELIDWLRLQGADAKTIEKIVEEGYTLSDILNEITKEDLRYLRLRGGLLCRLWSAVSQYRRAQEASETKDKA
# [19] = molecular target: CAMKK2 (human) (UniProt Q96RR4)
# [20] = molecular target: DAPK1 (human) (UniProt P53355)
# [21] = molecular target: NIM1 (human) (UniProt Q8IY84)
# Sequence of NIM1 (human) (Q8IY84 whole entry, looked up): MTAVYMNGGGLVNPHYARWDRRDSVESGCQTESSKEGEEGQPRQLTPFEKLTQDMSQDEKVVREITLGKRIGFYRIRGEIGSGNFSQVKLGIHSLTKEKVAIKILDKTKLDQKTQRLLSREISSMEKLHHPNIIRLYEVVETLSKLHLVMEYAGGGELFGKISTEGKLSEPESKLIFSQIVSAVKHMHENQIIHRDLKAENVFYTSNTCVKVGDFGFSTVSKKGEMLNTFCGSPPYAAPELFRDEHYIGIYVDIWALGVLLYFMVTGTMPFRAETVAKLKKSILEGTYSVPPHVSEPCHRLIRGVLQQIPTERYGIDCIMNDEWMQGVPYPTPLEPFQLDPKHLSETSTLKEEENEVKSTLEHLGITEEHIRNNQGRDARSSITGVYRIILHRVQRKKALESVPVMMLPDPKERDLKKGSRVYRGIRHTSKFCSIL
# [22] = molecular target: STK17A (human) (UniProt Q9UEE5)
# [23] = molecular target: PIM3 (human) (UniProt Q86V86)
# [24] = molecular target: MAP3K13 (human) (UniProt O43283)
# [25] = molecular target: YSK4 (human) (UniProt Q56UN5)
# [26] = system: RET (human), P07949 [V804M]
# [27] = molecular target: ERBB2 (human) (UniProt P04626)
# [28] = molecular target: CHUK (human) (UniProt O15111)
# Sequence of CHUK (human) (O15111 whole entry, looked up): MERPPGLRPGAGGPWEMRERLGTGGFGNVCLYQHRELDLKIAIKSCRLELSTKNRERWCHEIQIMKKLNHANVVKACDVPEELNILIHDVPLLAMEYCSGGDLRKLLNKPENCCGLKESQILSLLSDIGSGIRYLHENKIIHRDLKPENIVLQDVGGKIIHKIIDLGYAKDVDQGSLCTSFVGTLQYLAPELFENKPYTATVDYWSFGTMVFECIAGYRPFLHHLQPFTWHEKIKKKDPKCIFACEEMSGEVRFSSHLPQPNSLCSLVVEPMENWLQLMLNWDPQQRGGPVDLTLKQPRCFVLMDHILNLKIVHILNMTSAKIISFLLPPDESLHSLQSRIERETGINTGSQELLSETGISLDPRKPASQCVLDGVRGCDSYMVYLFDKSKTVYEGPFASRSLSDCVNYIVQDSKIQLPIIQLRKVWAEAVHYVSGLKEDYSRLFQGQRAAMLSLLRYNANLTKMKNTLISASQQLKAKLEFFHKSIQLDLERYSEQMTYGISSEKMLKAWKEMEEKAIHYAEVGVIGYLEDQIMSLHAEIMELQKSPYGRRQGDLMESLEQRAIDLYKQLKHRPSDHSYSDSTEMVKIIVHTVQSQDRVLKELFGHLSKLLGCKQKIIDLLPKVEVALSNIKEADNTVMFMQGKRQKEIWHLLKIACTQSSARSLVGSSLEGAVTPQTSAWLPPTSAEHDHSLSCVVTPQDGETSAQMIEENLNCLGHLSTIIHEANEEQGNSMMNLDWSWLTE
# [29] = molecular target: TNIK (human) (UniProt Q9UKE5)
# [30] = molecular target: CDKL3 (human) (UniProt Q8IVW4)
# [31] = molecular target: RPS6KA4 KD2 (human) (UniProt O75676)
# [32] = molecular target: AURKA (human) (UniProt O14965)
# [33] = molecular target: CSNK1G2 (human) (UniProt P78368)
# [34] = molecular target: NTRK3 (human) (UniProt Q16288)
# [35] = system: PIK3CA (human), P42336 [E545A]
# Sequence of PIK3CA (human), P42336 [E545A] (P42336 whole entry E545A, looked up): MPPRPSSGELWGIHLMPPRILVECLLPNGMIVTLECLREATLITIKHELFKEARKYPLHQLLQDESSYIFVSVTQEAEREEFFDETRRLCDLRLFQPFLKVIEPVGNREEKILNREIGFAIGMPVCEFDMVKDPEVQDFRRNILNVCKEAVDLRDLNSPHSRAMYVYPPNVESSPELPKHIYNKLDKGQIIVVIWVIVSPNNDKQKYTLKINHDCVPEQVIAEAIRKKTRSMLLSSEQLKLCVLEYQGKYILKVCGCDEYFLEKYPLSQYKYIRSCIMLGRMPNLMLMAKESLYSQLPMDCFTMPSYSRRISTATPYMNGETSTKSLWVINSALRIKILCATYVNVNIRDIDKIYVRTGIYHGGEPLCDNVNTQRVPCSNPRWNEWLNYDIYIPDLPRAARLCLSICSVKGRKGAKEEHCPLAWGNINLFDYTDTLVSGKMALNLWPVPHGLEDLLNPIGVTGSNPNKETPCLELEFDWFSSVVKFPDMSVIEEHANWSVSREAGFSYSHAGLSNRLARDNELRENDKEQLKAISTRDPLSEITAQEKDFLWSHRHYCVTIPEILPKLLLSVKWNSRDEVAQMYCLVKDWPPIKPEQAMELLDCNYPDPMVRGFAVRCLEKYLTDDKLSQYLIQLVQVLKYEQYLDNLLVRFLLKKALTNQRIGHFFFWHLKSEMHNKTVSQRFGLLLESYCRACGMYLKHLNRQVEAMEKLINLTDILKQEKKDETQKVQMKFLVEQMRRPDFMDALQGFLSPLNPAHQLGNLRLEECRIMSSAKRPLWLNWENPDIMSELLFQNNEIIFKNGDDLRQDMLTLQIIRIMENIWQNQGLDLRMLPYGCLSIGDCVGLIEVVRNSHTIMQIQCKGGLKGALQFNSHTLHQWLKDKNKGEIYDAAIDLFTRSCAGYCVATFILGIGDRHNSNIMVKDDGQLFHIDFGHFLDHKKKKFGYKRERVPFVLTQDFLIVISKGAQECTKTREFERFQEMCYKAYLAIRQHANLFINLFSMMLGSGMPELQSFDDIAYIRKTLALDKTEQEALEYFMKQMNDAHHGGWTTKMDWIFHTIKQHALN
# [36] = molecular target: CLK2 (human) (UniProt P49760)
# [37] = molecular target: DDR1 (human) (UniProt Q08345)
# [38] = molecular target: PIK3CD (human) (UniProt O00329)
# [39] = molecular target: ACVR2A (human) (UniProt P27037)
# [40] = molecular target: MAP2K6 (human) (UniProt P52564)
# Sequence of MAP2K6 (human) (P52564 whole entry, looked up): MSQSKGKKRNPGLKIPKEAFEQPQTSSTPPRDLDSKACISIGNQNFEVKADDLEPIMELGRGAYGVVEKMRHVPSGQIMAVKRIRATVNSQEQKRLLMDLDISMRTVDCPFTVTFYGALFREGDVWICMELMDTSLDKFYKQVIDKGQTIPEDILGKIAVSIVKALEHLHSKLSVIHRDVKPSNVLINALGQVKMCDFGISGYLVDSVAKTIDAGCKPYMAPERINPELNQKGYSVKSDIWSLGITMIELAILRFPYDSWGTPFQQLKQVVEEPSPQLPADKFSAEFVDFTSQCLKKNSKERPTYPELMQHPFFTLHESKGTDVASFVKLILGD
# [41] = system: ABL1 (human), P00519 [H396P]
# Sequence of PIM1 (human) (P11309 whole entry, looked up): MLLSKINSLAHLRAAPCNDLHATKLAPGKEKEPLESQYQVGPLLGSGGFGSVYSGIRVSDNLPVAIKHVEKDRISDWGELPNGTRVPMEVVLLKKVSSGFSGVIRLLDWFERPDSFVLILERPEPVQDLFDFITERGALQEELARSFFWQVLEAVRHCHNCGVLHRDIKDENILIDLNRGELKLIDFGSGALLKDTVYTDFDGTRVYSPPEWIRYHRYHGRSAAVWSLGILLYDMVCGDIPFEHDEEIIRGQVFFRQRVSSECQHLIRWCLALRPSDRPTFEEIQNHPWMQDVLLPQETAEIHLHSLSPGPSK
compound,measurement,setting,value
Cn1cc(C2=C(c3ccc(Cl)cc3Cl)C(=O)NC2=O)c2ccccc21,"kinase still bound, per cent of control",[1],57%
same,"kinase still bound, per cent of control",[2],95%
same,"kinase still bound, per cent of control",[3],100%
same,"kinase still bound, per cent of control",[4],22%
same,"kinase still bound, per cent of control",[5],100%
same,"kinase still bound, per cent of control",[6],100%
same,"kinase still bound, per cent of control",[7],78%
same,"kinase still bound, per cent of control",[8],81%
same,"kinase still bound, per cent of control",[9],64%
same,"kinase still bound, per cent of control",[10],99%
same,"kinase still bound, per cent of control",[11],100%
same,"kinase still bound, per cent of control",[12],96%
same,"kinase still bound, per cent of control",[13],84%
same,"kinase still bound, per cent of control",[14],76%
same,"kinase still bound, per cent of control",[15],100%
same,"kinase still bound, per cent of control",[16],100%
same,"kinase still bound, per cent of control",[17],98%
same,"kinase still bound, per cent of control",[18],100%
same,"kinase still bound, per cent of control",[19],72%
same,"kinase still bound, per cent of control",[20],79%
same,"kinase still bound, per cent of control",[21],100%
same,"kinase still bound, per cent of control",[22],16%
same,"kinase still bound, per cent of control",[23],18%
same,"kinase still bound, per cent of control",[24],84%
same,"kinase still bound, per cent of control",[25],12%
same,"kinase still bound, per cent of control",[26],83%
same,"kinase still bound, per cent of control",[27],100%
same,"kinase still bound, per cent of control",[28],84%
same,"kinase still bound, per cent of control",[29],68%
same,"kinase still bound, per cent of control",[30],100%
same,"kinase still bound, per cent of control",[31],96%
same,"kinase still bound, per cent of control",[32],100%
same,"kinase still bound, per cent of control",[33],100%
same,"kinase still bound, per cent of control",[34],62%
same,"kinase still bound, per cent of control",[35],100%
same,"kinase still bound, per cent of control",[36],0.45%
same,"kinase still bound, per cent of control",[37],100%
same,"kinase still bound, per cent of control",[38],100%
same,"kinase still bound, per cent of control",[39],79%
same,"kinase still bound, per cent of control",[40],57%
same,"kinase still bound, per cent of control",[41],90%
COc1ccc(CNC(=O)Nc2ncc([N+](=O)[O-])s2)cc1,"kinase still bound, per cent of control",[1],73%
same,"kinase still bound, per cent of control",[2],100%
same,"kinase still bound, per cent of control",[3],100%
same,"kinase still bound, per cent of control",[4],75%
same,"kinase still bound, per cent of control",[6],57%
same,"kinase still bound, per cent of control",[7],83%
same,"kinase still bound, per cent of control",[8],66%
same,"kinase still bound, per cent of control",[9],85%
same,"kinase still bound, per cent of control",[10],100%
same,"kinase still bound, per cent of control",[11],100%
same,"kinase still bound, per cent of control",[12],100%
same,"kinase still bound, per cent of control",[13],71%
same,"kinase still bound, per cent of control",[14],100%
same,"kinase still bound, per cent of control",[15],100%
same,"kinase still bound, per cent of control",[16],100%
same,"kinase still bound, per cent of control",[17],100%
same,"kinase still bound, per cent of control",[18],100%
same,"kinase still bound, per cent of control",[19],100%
same,"kinase still bound, per cent of control",[20],99%
same,"kinase still bound, per cent of control",[21],100%
same,"kinase still bound, per cent of control",[22],80%
same,"kinase still bound, per cent of control",[23],83%
same,"kinase still bound, per cent of control",[24],70%
same,"kinase still bound, per cent of control",[25],49%
same,"kinase still bound, per cent of control",[26],96%
same,"kinase still bound, per cent of control",[27],95%
same,"kinase still bound, per cent of control",[28],100%
same,"kinase still bound, per cent of control",[29],100%
same,"kinase still bound, per cent of control",[30],76%
same,"kinase still bound, per cent of control",[31],85%
same,"kinase still bound, per cent of control",[32],84%
same,"kinase still bound, per cent of control",[33],82%
same,"kinase still bound, per cent of control",[34],85%
same,"kinase still bound, per cent of control",[35],94%
same,"kinase still bound, per cent of control",[36],73%
same,"kinase still bound, per cent of control",[37],100%
same,"kinase still bound, per cent of control",[38],100%
same,"kinase still bound, per cent of control",[39],87%
same,"kinase still bound, per cent of control",[40],98%
same,"kinase still bound, per cent of control",[41],75%
Cc1cnc(-c2cnc(NCCNc3ccc(C#N)cn3)nc2-c2ccc(Cl)cc2Cl)[nH]1,"kinase still bound, per cent of control",[1],73%
same,"kinase still bound, per cent of control",[2],100%
same,"kinase still bound, per cent of control",[3],100%
same,"kinase still bound, per cent of control",[4],94%
same,"kinase still bound, per cent of control",[5],100%
same,"kinase still bound, per cent of control",[6],79%
same,"kinase still bound, per cent of control",[7],100%
same,"kinase still bound, per cent of control",[8],49%
same,"kinase still bound, per cent of control",[9],80%
same,"kinase still bound, per cent of control",[10],93%
same,"kinase still bound, per cent of control",[11],100%
same,"kinase still bound, per cent of control",[12],100%
same,"kinase still bound, per cent of control",[13],100%
same,"kinase still bound, per cent of control",[14],100%
same,"kinase still bound, per cent of control",[15],100%
same,"kinase still bound, per cent of control",[16],54%
same,"kinase still bound, per cent of control",[17],100%
same,"kinase still bound, per cent of control",[18],100%
same,"kinase still bound, per cent of control",[19],100%
same,"kinase still bound, per cent of control",[20],84%
same,"kinase still bound, per cent of control",[21],100%
same,"kinase still bound, per cent of control",[22],85%
same,"kinase still bound, per cent of control",[23],95%
same,"kinase still bound, per cent of control",[24],80%
same,"kinase still bound, per cent of control",[25],30%
same,"kinase still bound, per cent of control",[26],90%
same,"kinase still bound, per cent of control",[27],100%
same,"kinase still bound, per cent of control",[28],100%
same,"kinase still bound, per cent of control",[29],96%
same,"kinase still bound, per cent of control",[30],52%
same,"kinase still bound, per cent of control",[31],80%
same,"kinase still bound, per cent of control",[32],100%
same,"kinase still bound, per cent of control",[33],59%
same,"kinase still bound, per cent of control",[34],100%
same,"kinase still bound, per cent of control",[35],100%
same,"kinase still bound, per cent of control",[36],40%
same,"kinase still bound, per cent of control",[37],100%
same,"kinase still bound, per cent of control",[38],93%
same,"kinase still bound, per cent of control",[39],100%
same,"kinase still bound, per cent of control",[40],73%
same,"kinase still bound, per cent of control",[41],100%
